Measurements reported in patent US6737383B1, “Herbicidal oxadiazolidines” (priority 1999, dated 2004).

Legend:
wild oat = assay: Test B pre/postemergence wild oat; assay type: in vivo, Avena fatua
Outline: (§1)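 Test chemicals in a non-phytotoxic solvent mixture with surfactant were sprayed preemergence onto planted seeds and postemergence onto plants 2 to 18 cm tall (1- to 4-leaf stage). After twelve to sixteen days in a greenhouse, injury was visually rated against untreated controls from 0 (no effect) to 10 (complete control).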

morningglory = assay: Test B pre/postemergence morningglory; assay type: in vivo, Ipomoea hederacea
Outline: as §1

blackgrass = assay: Test B pre/postemergence blackgrass; assay type: in vivo, Alopecurus myosuroides
Outline: as §1

purple nutsedge = assay: Test B pre/postemergence purple nutsedge; assay type: in vivo, Cyperus rotundus
Outline: as §1

giant foxtail = assay: Test B pre/postemergence giant foxtail; assay type: in vivo, Setaria faberii
Outline: as §1

rape = assay: Test B pre/postemergence rape; assay type: in vivo, Brassica napus
Outline: as §1

bamyardgrass = assay: Test B flood test barnyardgrass; assay type: in vivo, Echinochloa crus-galli
Outline: (§2)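 Plants were grown to the 2-leaf stage before treatment with test chemical, then held in a greenhouse for twelve to sixteen days. Injury was visually rated against untreated controls on a 0–10 scale, where 0 is no effect and 10 is complete control.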

cocklebur = assay: Test B pre/postemergence cocklebur; assay type: in vivo, Xanthium strumarium
Outline: as §1

soybean = assay: Test B pre/postemergence soybean; assay type: in vivo, Glycine max
Outline: as §1

duck salad = assay: Test B flood test duck salad; assay type: in vivo, Heteranthera limosa
Outline: as §2

smallflower flatsedge = assay: Test B flood test smallflower flatsedge; assay type: in vivo, Cyperus difformis
Outline: as §2

bedstraw = assay: Test B pre/postemergence bedstraw; assay type: in vivo, Galium aparine
Outline: as §1

surinam grass = assay: Test B pre/postemergence surinam grass; assay type: in vivo, Brachiaria decumbens
Outline: as §1

wheat = assay: Test B pre/postemergence wheat; assay type: in vivo, Triticum aestivum
Outline: as §1

velvetleaf = assay: Test B pre/postemergence velvetleaf; assay type: in vivo, Abutilon theophrasti
Outline: as §1

pigweed = assay: Test B pre/postemergence pigweed; assay type: in vivo, Amaranthus retroflexus
Outline: as §1

[1] = Postemergence, Rate 125 g/ha, scale of 0 to 10 where 0 is no effect and 10 is complete control
[2] = Postemergence, Rate 250 g/ha, scale of 0 to 10, 0 is no effect, 10 is complete control
[3] = Postemergence, Rate 500 g/ha, scale of 0 to 10 where 0 is no effect and 10 is complete control
[4] = Postemergence, Rate 1000 g/ha, scale 0 to 10 (0 no effect, 10 complete control)
[5] = Preemergence, Rate 125 g/ha, scale of 0 to 10 where 0 is no effect and 10 is complete control
[6] = Preemergence, Rate 500 g/ha, scale of 0 to 10 where 0 is no effect and 10 is complete control
[7] = Rate 1000 g/ha, Preemergence, scale 0 to 10 (0 no effect, 10 complete control)
[8] = Pre-emergence, Rate 1000 g/ha, scale 0 to 10 (0 no effect, 10 complete control)
[9] = Rate 125 g/ha, under heading Pre-emergence, flood test species, visual evaluation after twelve to sixteen days
[10] = Rate 250 g/ha, Pre-emergence (flood test species), scale 0 to 10, 0 is no effect, 10 is complete control
[11] = Rate 500 g/ha, Pre-emergence section of Table B, 0 to 10 scale (0 no effect, 10 complete control)

## C=CCn1c(=O)on(C(=O)N(c2c(C)cccc2C)C(C)COC)c1=O (centres unmarked) [Compound 600]
Wild oat; [1]
  Plant response rating, Wild oats: 0
Wild oat; [2]
  Wild oats plant response rating: 0
Wild oat; [3]
  Plant response rating, Wild oats: 0
Wild oat; [4]
  Wild oats plant response rating: 0
Wild oat; [5]
  Wild oats plant response rating: 0
Wild oat; [6]
  Plant response rating, Wild oats: 0
Wild oat; [7]
  Plant response rating, Wild oats: 0
morningglory; [1]
  Plant response rating, Morningglory: 0
morningglory; [2]
  Morningglory plant response rating: 0
morningglory; [3]
  Plant response rating, Morningglory: 0
morningglory; [4]
  Morningglory plant response rating: 0
morningglory; [5]
  Morningglory plant response rating: 0
morningglory; [6]
  Plant response rating, Morningglory: 0
morningglory; [7]
  Plant response rating, Morningglory: 0
blackgrass; [1]
  Plant response rating, Blackgrass: 0
blackgrass; [2]
  Blackgrass plant response rating: 0
blackgrass; [3]
  Plant response rating, Blackgrass: 0
blackgrass; [4]
  Blackgrass plant response rating: 0
blackgrass; [5]
  Blackgrass plant response rating: 0
blackgrass; Preemergence, Rate 250 g/ha
  Blackgrass plant response rating (0 to 10 scale): 0
blackgrass; [6]
  Blackgrass plant response rating: 0
blackgrass; [7]
  Plant response rating, Blackgrass: 0
Purple nutsedge; [1]
  Plant response rating, Nutsedge: 0
Purple nutsedge; [2]
  Nutsedge plant response rating: 0
Purple nutsedge; [3]
  Plant response rating, Nutsedge: 0
Purple nutsedge; [4]
  Nutsedge plant response rating: 0
Purple nutsedge; [5]
  Nutsedge plant response rating: 0
Purple nutsedge; [6]
  Plant response rating, Nutsedge: 0
Purple nutsedge; [7]
  Plant response rating, Nutsedge: 0
Giant foxtail; [1]
  Plant response rating, Giant foxtail: 0
Giant foxtail; [2]
  Giant foxtail plant response rating: 0
Giant foxtail; [3]
  Plant response rating, Giant foxtail: 3
Giant foxtail; [4]
  Giant foxtail plant response rating: 3
Giant foxtail; [5]
  Giant foxtail plant response rating: 0
Giant foxtail; [6]
  Plant response rating, Giant foxtail: 0
Giant foxtail; [7]
  Plant response rating, Giant foxtail: 0
rape; [1]
  Plant response rating, Rape: 0
rape; [2]
  Rape plant response rating: 0
rape; [3]
  Plant response rating, Rape: 0
rape; [4]
  Rape plant response rating: 0
rape; [5]
  Rape plant response rating: 0
rape; [6]
  Plant response rating, Rape: 0
rape; [7]
  Plant response rating, Rape: 0
bamyardgrass; [8]
  Barnyardgrass plant response rating: 0
bamyardgrass; [9]
  Barnyardgrass plant response rating (0 to 10 scale, 0 is no effect, 10 is complete control): 0
bamyardgrass; [10]
  Barnyardgrass plant response rating: 0
bamyardgrass; [11]
  Barnyardgrass plant response rating: 0
cocklebur; [1]
  Plant response rating, Cocklebur: 0
cocklebur; [2]
  Cocklebur plant response rating: 0
cocklebur; [3]
  Plant response rating, Cocklebur: 0
cocklebur; [4]
  Cocklebur plant response rating: 0
cocklebur; [5]
  Cocklebur plant response rating: 0
cocklebur; Preemergence, Rate 250 g/ha
  Cocklebur plant response rating (0 to 10 scale): 0
cocklebur; [6]
  Plant response rating, Cocklebur: 0
cocklebur; [7]
  Plant response rating, Cocklebur: 0
soybean; [1]
  Plant response rating, Soybean: 2
soybean; [2]
  Soybean plant response rating: 3
soybean; [3]
  Plant response rating, Soybean: 4
soybean; [4]
  Soybean plant response rating: 4
soybean; [5]
  Soybean plant response rating: 0
soybean; [6]
  Plant response rating, Soybean: 0
soybean; [7]
  Plant response rating, Soybean: 3
Duck salad; [8]
  Ducksalad plant response rating: 0
Duck salad; [9]
  Ducksalad plant response rating (0 to 10 scale, 0 is no effect, 10 is complete control): 0
Duck salad; [10]
  Ducksalad plant response rating: 0
Duck salad; [11]
  Ducksalad plant response rating: 0
Smallflower flatsedge; [8]
  S. Flatsedge plant response rating: 0
Smallflower flatsedge; [9]
  S. Flatsedge plant response rating (0 to 10 scale, 0 is no effect, 10 is complete control): 0
Smallflower flatsedge; [10]
  S. Flatsedge plant response rating: 0
Smallflower flatsedge; [11]
  S. Flatsedge plant response rating: 0
bedstraw; [3]
  Plant response rating, Bedstraw: 0
bedstraw; [4]
  Bedstraw plant response rating: 0
bedstraw; Preemergence, Rate 250 g/ha
  Bedstraw plant response rating (0 to 10 scale): 0
bedstraw; [6]
  Bedstraw plant response rating: 0
bedstraw; [7]
  Plant response rating, Bedstraw: 0
Surinam grass; [1]
  Plant response rating, B. signalgrass: 0
Surinam grass; [2]
  B. signalgrass plant response rating: 0
Surinam grass; [3]
  Plant response rating, B. signalgrass: 0
Surinam grass; [4]
  B. signalgrass plant response rating: 0
Surinam grass; [5]
  B. signalgrass plant response rating: 0
Surinam grass; Preemergence, Rate 250 g/ha
  B. signalgrass plant response rating (0 to 10 scale, 0 is no effect, 10 is complete control): 0
Surinam grass; [6]
  B. signalgrass plant response rating: 0
Surinam grass; [7]
  Plant response rating, B. signalgrass: 0
wheat; [1]
  Plant response rating, Wheat: 0
wheat; [2]
  Wheat plant response rating: 0
wheat; [3]
  Plant response rating, Wheat: 0
wheat; [4]
  Wheat plant response rating: 0
wheat; [5]
  Wheat plant response rating: 0
wheat; [6]
  Plant response rating, Wheat: 0
wheat; [7]
  Plant response rating, Wheat: 0
velvetleaf; [1]
  Plant response rating, Velvetleaf: 0
velvetleaf; [2]
  Velvetleaf plant response rating: 0
velvetleaf; [3]
  Plant response rating, Velvetleaf: 0
velvetleaf; [4]
  Velvetleaf plant response rating: 0
velvetleaf; [5]
  Velvetleaf plant response rating: 0
velvetleaf; [6]
  Plant response rating, Velvetleaf: 0
velvetleaf; [7]
  Plant response rating, Velvetleaf: 0
pigweed; [1]
  Plant response rating, Redroot pigweed: 0
pigweed; [2]
  Redroot pigweed plant response rating: 0
pigweed; [3]
  Plant response rating, Redroot pigweed: 0
pigweed; [4]
  Redroot pigweed plant response rating: 0
pigweed; [5]
  Redroot pigweed plant response rating: 0
pigweed; [6]
  Plant response rating, Redroot pigweed: 0
pigweed; [7]
  Plant response rating, Redroot pigweed: 0
